Tests used:
C57/BL male mice = experiment: Septic shock assay (LPS plus galactosamine challenge), mortality; assay type: in vivo, mouse; conditions: 60, 20, 6 and 2 mg/kg daily IP for three days, first dose 30 min after challenge
Method: Groups of 10 C57/BL male mice weighing 18 to 20 g were administered a test compound, 1-carboxynaphthalene-1-carboxamide at the doses of 60, 20, 6 and 2 mg/kg, daily, by intraperitopeal (IP) injection for three consecutive days. Each animal was first challenged with lipopolysaccharide (LPS, from E. Coli, LD100 of […] IV) plus galactosamine (20 mg/animal IV). The first dose of test compound in a suitable vehicle was given 30 minutes after challenge, and the second and third doses were given 24 hours later on day 2 and day 3 respectively, with only the surviving animals receiving the second or third dose of the test compound. Mortality was recorded every 12 hours after challenge for the three-day testing period. 1-Carboxy-naphthalene-1-carboxamide provided a protection against mortality from septic shock of about 40%.

male Long-Evans rats = experiment: Neuroprotective effect of DPQ on focal cerebral ischemia (distal MCA cauterization plus bilateral CCA occlusion), TTC infarct area and volume; assay type: in vivo, rat
Method: Focal cerebral ischemia was produced by cauterization of the right distal MCA (middle cerebral artery) with bilateral temporary common carotid artery occlusion in male Long-Evans rats for 90 minutes. All procedures performed on the animals were approved by the University Institutional Animal Care and Use Committee of the University of Pennsylvania. A total of 42 rats (weights: 230-340 g) obtained from Charles River were used in this study. The animals fasted overnight with free access to water prior to the surgical procedure.
Two hours prior to MCA occlusion, varying amounts (control, n=14; 5 mg/kg, n=7; 10 mg/kg, n=7; 20 mg/kg, n=7; and 40 mg/kg, n=7) of the compound, 3,4-dihydro-5-[4-(1-piperidinyl)-butoxy]-1 (2H)-isoquinolinone (“DPQ”) were dissolved in dimethyl sulfoxide (DMSO) using a sonicator. A volume of 1.28 ml/kg of the resulting solution was injected intraperitoneally into fourteen rats.
Focal cerebral ischemia was produced by cauterization of the distal portion of the right MCA with bilateral temporary common carotid artery (CCA) occlusion by the procedure of Chen et al., “A Model of Focal Ischemic Stroke in the Rat: Reproducible Extensive Cortical Infarction”, Stroke 17:738-43 (1986) and/or Liu et al., “Polyethylene Glycol-conjugated Superoxide Dismutase and Catalase Reduce Ischemic Brain Injury”, Am. J. Physiol. 256:H589-93 (1989), both of which are hereby incorporated by reference. […]
Two hours after MCA occlusion, the animals were given the same doses of the PARP inhibitor as in the pre-treatment. […] To avoid artifacts due to edema, the damaged area was calculated by subtracting the area of the normal tissue in the hemisphere ipsilateral to the stroke from the area of the hemisphere contralateral to the stroke, by the method of Swanson et al., “A Semiautomated Method for Measuring Brain Infarct Volume”, J. Cereb. […] The total volume of infarction was calculated by summation of the damaged volume of the brain slices.

[1] = tested on: human fibroblast cells lines (W138 or BJ cells); experiment: Extending proliferative capacity and lifespan of cells; assay type: cell-based; conditions: untreated cells stop dividing after about 40 days
Method: At the time of subdivision, the media is aspirated, and the cells rinsed with phosphate buffer saline (PBS) and then trypsinized. The cells are counted with a Coulter counter and plated at a density of 10^5 cells per cm^2 in 6-well tissue culture plates in DMEM/199 medium supplemented with 10% bovine calf serum and varying amounts ([…]: from a 100X stock solution in DMEM/M199 medium) of a PARP inhibitor of Formula I as disclosed herein. This process is repeated every 7 days until the cell appear to stop dividing. The untreated (control) cells reach senescence and stop dividing after about 40 days in culture.

NC(=O)C1(C(=O)O)CC=Cc2ccccc21 (stereo not shown) [1-Carboxy-naphthalene-1-carboxamide, 1-carboxynaphthalene-1-carboxamide]
protection against mortality from septic shock (C57/BL male mice): about 40%

O=C1NCCc2c(OCCCCN3CCCCC3)cccc21 [DPQ, 3,4-dihydro-5-[4-(1-piperidinyl)-butoxy]-1 (2H)-isoquinolinone]
distribution of the cross-sectional infarct area (FIG. 1 curve) (male Long-Evans rats; 5 mg/kg): approximately halfway between the control and the 10 mg/kg curves | distribution of the cross-sectional infarct area (FIG. 1 curve) (male Long-Evans rats; 20 mg/kg): approximately halfway between the control and the 10 mg/kg curves | distribution of the cross-sectional infarct area (FIG. 1 curve) (male Long-Evans rats; 40 mg/kg): close to the control

NC(=O)c1cccc(N)c1 [3-amino-benzamide]
effect on lifespan of the cells ([1]; 10 μM): little or no effect | effect on lifespan of the cells ([1]; 100 μM): lengthen the lifespan of the cells | time in culture at which cells still divide ([1]; 1 mM): still divide after 60 days
